# Test system: gene promoters in NT2/D1-R1 control and DNMT3B knockdown cells
# Assay: Genome-wide promoter methylation analysis, HumanMethylation27 BeadChip (Table 15)
# Assay type: cell-based, human
# Conditions: sh-3b + 5aza
# Experimental: DNA methylation analysis was performed in samples in triplicate using the […] […] assay with the HumanMethylation27 BeadChip ([…]) and the BeadChip was scanned on the BeadArray Reader ([…]), according to the manufacturer's instructions. Raw data was normalized and analyzed with Genome Studio software ([…]). The HumanMethylation27 BeadChip assays 27,578 CpGs covering more than 14,000 genes, mostly from promoter regions. […] Hierarchical clustering was performed as stated above. HumanMethylation27 BeadChip data and gene expression microarray data were submitted to NCBI GEO.
compound,measurement,value
Nc1ncn([C@H]2C[C@H](O)[C@@H](CO)O2)c(=O)n1 [5aza],ABCC1 cg20158248 promoter methylation Mean,0.458
same,ACP1 cg27226618 promoter methylation Mean,0.490
same,ADCY4 cg16761581 promoter methylation Mean,0.297
same,ADRA2A cg26926521 promoter methylation Mean,0.682
same,ALDH1A3 cg19224278 promoter methylation Mean,0.310
same,ALKBH4 cg07404418 promoter methylation Mean,0.312
same,ALX4 cg04549333 promoter methylation Mean,0.880
same,ALX4 cg04970352 promoter methylation Mean,0.645
same,ALX4 cg19358442 promoter methylation Mean,0.834
same,ANKRD13C cg19342782 promoter methylation Mean,0.372
same,ANKRD45 cg15883716 promoter methylation Mean,0.793
same,APC cg16970232 promoter methylation Mean,0.269
same,BLOC1S2 cg26610808 promoter methylation Mean,0.526
same,BTBD5 cg00660989 promoter methylation Mean,0.214
same,BTNL8 cg24024214 promoter methylation Mean,0.781
same,C1QL1 cg13818573 promoter methylation Mean,0.255
same,C1orf188 cg15731815 promoter methylation Mean,0.321
same,C10orf107 cg16063112 promoter methylation Mean,0.230
same,C14orf173 cg24404909 promoter methylation Mean,0.248
same,C16orf60 cg17858663 promoter methylation Mean,0.177
same,C19orf4 cg07379574 promoter methylation Mean,0.733
same,C19orf22 cg18022193 promoter methylation Mean,0.180
same,CAMK1G cg27337148 promoter methylation Mean,0.715
same,CD58 cg21039631 promoter methylation Mean,0.325
same,CDKN2B cg04675937 promoter methylation Mean,0.167
same,CDKN2B cg08390209 promoter methylation Mean,0.150
same,CDX1 cg15452204 promoter methylation Mean,0.424
same,CEACAM4 cg10237469 promoter methylation Mean,0.430
same,CEACAM7 cg19623751 promoter methylation Mean,0.616
same,CGI-38 cg13067215 promoter methylation Mean,0.274
same,CHD5 cg00282347 promoter methylation Mean,0.682
same,CHMP2A cg14042128 promoter methylation Mean,0.354
same,COL11A1 cg12884406 promoter methylation Mean,0.331
same,COPS7B cg05422352 promoter methylation Mean,0.338
same,CRSP7 cg24459023 promoter methylation Mean,0.268
same,CSPG3 cg06952310 promoter methylation Mean,0.350
same,CSTF2T cg06712026 promoter methylation Mean,0.277
same,CTAGE1 cg02847216 promoter methylation Mean,0.727
same,CUL3 cg09509863 promoter methylation Mean,0.309
same,CYP4F12 cg25813714 promoter methylation Mean,0.721
same,DCTD cg14892066 promoter methylation Mean,0.171
same,DDEF2 cg22190705 promoter methylation Mean,0.187
same,DEFB118 cg03014957 promoter methylation Mean,0.548
same,DNASE2 cg07955356 promoter methylation Mean,0.207
same,DPH1 cg11516377 promoter methylation Mean,0.319
same,DYRK1B cg18851831 promoter methylation Mean,0.820
same,EIF2B3 cg16604218 promoter methylation Mean,0.360
same,ELSPBP1 cg19404979 promoter methylation Mean,0.406
same,ENOSF1 cg16112050 promoter methylation Mean,0.724
same,EPN3 cg24006361 promoter methylation Mean,0.739
same,EREG cg19308222 promoter methylation Mean,0.252
same,FAM111B cg13864937 promoter methylation Mean,0.366
same,FLJ10726 cg14145762 promoter methylation Mean,0.292
same,FLJ11200 cg09001953 promoter methylation Mean,0.335
same,FLJ23514 cg16404106 promoter methylation Mean,0.436
same,FLRT3 cg23127998 promoter methylation Mean,0.249
same,FLT3LG cg01667384 promoter methylation Mean,0.179
same,FXYD7 cg22392666 promoter methylation Mean,0.720
same,G10 cg02798801 promoter methylation Mean,0.349
same,GABRB2 cg16509658 promoter methylation Mean,0.176
same,GALNT4 cg16606638 promoter methylation Mean,0.245
same,GAS8 cg03634997 promoter methylation Mean,0.814
same,GBX2 cg23095584 promoter methylation Mean,0.268
same,GNAS cg27661264 promoter methylation Mean,0.334
same,GRB10 cg26163537 promoter methylation Mean,0.310
same,GUP1 cg24938727 promoter methylation Mean,0.441
same,HACE1 cg23047681 promoter methylation Mean,0.156
same,HGF cg06745740 promoter methylation Mean,0.404
same,HNRNPG-T cg22062068 promoter methylation Mean,0.650
same,HOXB4 cg25145670 promoter methylation Mean,0.311
same,HRASLS cg08376864 promoter methylation Mean,0.309
same,HYPK cg00480356 promoter methylation Mean,0.630
same,ICAM1 cg08607082 promoter methylation Mean,0.149
same,IFI16 cg07463059 promoter methylation Mean,0.386
same,IFI44 cg07107453 promoter methylation Mean,0.330
same,IFNA2 cg13235447 promoter methylation Mean,0.480
same,IGF2AS cg20792294 promoter methylation Mean,0.211
same,IGFBP5 cg19008649 promoter methylation Mean,0.264
same,IGSF9 cg19111262 promoter methylation Mean,0.576
same,IHH cg17178336 promoter methylation Mean,0.504
same,IL2RG cg01361446 promoter methylation Mean,0.834
same,IL18 cg11304234 promoter methylation Mean,0.478
same,INPP5B cg10784030 promoter methylation Mean,0.251
same,ITGB3BP cg18464559 promoter methylation Mean,0.121
same,KA21 cg23776012 promoter methylation Mean,0.410
same,KCNA3 cg03483626 promoter methylation Mean,0.208
same,KCNAB3 cg14918082 promoter methylation Mean,0.534
same,KCNB2 cg11754206 promoter methylation Mean,0.377
same,KCNK10 cg17671157 promoter methylation Mean,0.820
same,KLK7 cg19953406 promoter methylation Mean,0.680
same,LAMB1 cg10064162 promoter methylation Mean,0.295
same,LDHD cg24429836 promoter methylation Mean,0.510
same,LIG4 cg08216792 promoter methylation Mean,0.266
same,LYNX1 cg24046110 promoter methylation Mean,0.288
same,MC3R cg19226099 promoter methylation Mean,0.784
same,MGC26856 cg07684809 promoter methylation Mean,0.260
same,MLNR cg02620013 promoter methylation Mean,0.418
same,MPHOSPH6 cg16119274 promoter methylation Mean,0.280
same,MSX1 cg03199651 promoter methylation Mean,0.204
same,MYOD1 cg24322623 promoter methylation Mean,0.650
same,NCKIPSD cg04244987 promoter methylation Mean,0.242
same,NDP cg11614809 promoter methylation Mean,0.579
same,NEFH cg16042149 promoter methylation Mean,0.776
same,NEIL2 cg14329976 promoter methylation Mean,0.226
same,NME5 cg13707560 promoter methylation Mean,0.911
same,NME5 cg25507001 promoter methylation Mean,0.671
same,NOC3L cg07270175 promoter methylation Mean,0.464
same,NOX4 cg17063929 promoter methylation Mean,0.575
same,NPAS1 cg09628601 promoter methylation Mean,0.303
same,NRXN1 cg10917619 promoter methylation Mean,0.594
same,OR1N1 cg14598387 promoter methylation Mean,0.339
same,OR10J1 cg15700197 promoter methylation Mean,0.444
same,PACS1 cg01663295 promoter methylation Mean,0.329
same,PCDHB13 cg14592099 promoter methylation Mean,0.423
same,PCDHB13 cg24435562 promoter methylation Mean,0.273
same,PCDHGA12 cg11647681 promoter methylation Mean,0.623
same,PCGF5 cg17001035 promoter methylation Mean,0.664
same,PEPD cg06546607 promoter methylation Mean,0.229
same,PEX5L cg02430692 promoter methylation Mean,0.322
same,PI3 cg02442161 promoter methylation Mean,0.625
same,PIGL cg05310071 promoter methylation Mean,0.231
same,POU3F3 cg20291049 promoter methylation Mean,0.268
same,POU4F2 cg24199834 promoter methylation Mean,0.231
same,PTCH2 cg15329642 promoter methylation Mean,0.576
same,PTPN5 cg17233601 promoter methylation Mean,0.498
same,RASGEF1A cg07871503 promoter methylation Mean,0.574
same,RBPSUHL cg21835643 promoter methylation Mean,0.665
same,REM1 cg12153542 promoter methylation Mean,0.456
same,REM1 cg26299767 promoter methylation Mean,0.440
same,RLN3R1 cg12238343 promoter methylation Mean,0.451
same,RPL39L cg07441272 promoter methylation Mean,0.505
same,RRM2B cg07125123 promoter methylation Mean,0.288
same,RYR1 cg05471297 promoter methylation Mean,0.272
same,S100A12 cg02813121 promoter methylation Mean,0.719
same,SCUBE2 cg01081263 promoter methylation Mean,0.505
same,SCUBE2 cg19237879 promoter methylation Mean,0.493
same,SEMA3E cg08274234 promoter methylation Mean,0.207
same,SEMA6C cg01958916 promoter methylation Mean,0.255
same,SEPN1 cg21187265 promoter methylation Mean,0.381

# Source: patent US9476099B2 (TRUSTEES OF DARTMOUTH COLLEGE, priority 2012, dated 2016)
